One assay addresses human recombinant BACE2 (Homo sapiens (Human), UniProt Q9Y5Z0). Put plainly: In vitro enzymatic BACE2 FRET assay. Type of assay: biochemical. The settings on record: read-out: IC50 IP (μM) BACE2 enzyme. The method in brief: (§1)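 Fluorescence from cleavage of a quenched peptide spanning the BACE site (50 nM) was read at 488 nm excitation, 590 nm emission. Purified enzyme (Ni-NTA) and compound reacted for one hour before a Tris stop shifted pH to neutral.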

Assay [1] concerns Aβ40 in conditioned medium of cells stably expressing Amyloid Precursor Protein (APP). As to the kind of experiment: In vitro BACE-1 cell-based assay (Aβ40 sandwich ELISA). The settings on record: read-out: IC50 IP (μM) BACE1 cell. The essentials:
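Aβ40 in supernatants measured by time-resolved fluorescence sandwich ELISA, with pAb40 as capture and biotin-6E10 as detector antibody, each incubated at 4 °C.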

The next assay has as its target human recombinant BACE1 (Homo sapiens (Human), UniProt P56817). Put plainly: In vitro enzymatic BACE1 FRET assay. Type of assay: biochemical. The settings on record: read-out: IC50 IP (μM) BACE1 enzyme. The method in brief: as §1
A further assay has as its target Recombinant Cat D (Homo sapiens (Human), UniProt P07339). As to the kind of experiment: In vitro enzymatic Cathepsin D (Cat D) FRET assay. The settings on record: read-out: IC50 IP (μM) CatD. Format: biochemical. The essentials: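 CHO-expressed enzyme; buffer 0.05 M citrate pH 3.5, 5 mM CHAPS, 10% DMSO final. Start with FRET substrate 20 nM, 1 h incubation, Tris stop (pH to neutral), fluorescence ex 500 nm/em 580 nm.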

Drawing on patent US20160046618A1, “Cyclopropyl Fused Thiazin-2-Amine Compounds as Beta-Secretase Inhibitors and Methods of Use” (AMGEN INC., priority 2014, published 2016), this text covers IC50 for 17 molecules.

Where two headings read alike, the source gives them in different places. Bounds are passed on as bounds.

For orientation: IC50 means the midpoint of a concentration-inhibition curve.

Sequence of Recombinant Cat D (P07339 65-412): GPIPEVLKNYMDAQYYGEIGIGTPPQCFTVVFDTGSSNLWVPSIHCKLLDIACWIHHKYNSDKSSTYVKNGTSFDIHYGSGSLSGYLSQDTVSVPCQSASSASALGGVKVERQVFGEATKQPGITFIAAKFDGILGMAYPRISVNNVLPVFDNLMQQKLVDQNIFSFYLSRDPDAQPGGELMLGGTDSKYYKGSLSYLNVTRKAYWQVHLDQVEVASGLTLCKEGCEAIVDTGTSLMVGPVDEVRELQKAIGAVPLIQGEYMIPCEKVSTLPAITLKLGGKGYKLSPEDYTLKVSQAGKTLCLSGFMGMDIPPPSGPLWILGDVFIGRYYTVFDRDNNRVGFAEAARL
Sequence of human recombinant BACE1 (P56817 46-501): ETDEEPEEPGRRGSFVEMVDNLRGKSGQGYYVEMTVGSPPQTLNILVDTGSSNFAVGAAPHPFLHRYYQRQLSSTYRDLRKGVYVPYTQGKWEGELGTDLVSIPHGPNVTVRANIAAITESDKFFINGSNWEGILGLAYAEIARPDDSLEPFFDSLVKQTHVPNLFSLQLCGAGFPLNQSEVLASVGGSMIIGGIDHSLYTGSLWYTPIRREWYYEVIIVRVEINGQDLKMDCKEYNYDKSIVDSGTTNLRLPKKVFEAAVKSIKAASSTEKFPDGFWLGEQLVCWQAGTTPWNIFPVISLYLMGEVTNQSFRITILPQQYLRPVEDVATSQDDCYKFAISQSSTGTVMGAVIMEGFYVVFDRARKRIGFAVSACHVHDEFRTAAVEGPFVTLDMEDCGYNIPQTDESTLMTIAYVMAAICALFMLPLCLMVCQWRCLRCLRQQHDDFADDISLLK
Sequence of human recombinant BACE2 (Q9Y5Z0 63-518): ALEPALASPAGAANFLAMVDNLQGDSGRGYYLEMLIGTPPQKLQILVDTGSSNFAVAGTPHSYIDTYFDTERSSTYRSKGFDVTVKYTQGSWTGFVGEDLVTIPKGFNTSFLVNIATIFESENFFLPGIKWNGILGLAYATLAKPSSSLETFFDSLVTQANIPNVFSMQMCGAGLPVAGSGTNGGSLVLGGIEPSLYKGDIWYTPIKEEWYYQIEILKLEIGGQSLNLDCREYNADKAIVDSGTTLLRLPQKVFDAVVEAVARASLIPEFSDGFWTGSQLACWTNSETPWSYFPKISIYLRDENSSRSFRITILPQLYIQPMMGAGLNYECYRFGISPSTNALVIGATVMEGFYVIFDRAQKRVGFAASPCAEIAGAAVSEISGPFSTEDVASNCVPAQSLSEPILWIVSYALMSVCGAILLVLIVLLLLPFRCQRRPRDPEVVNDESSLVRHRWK

Regarding `C#CCCOc1cnc(C(=O)Nc2cc(F)c(F)c([C@@]3(C)N=C(N)S[C@@]4(COC)C[C@H]43)c2)cn1` [Example 1060, N-(3-((1S,5S,6S)-3-amino-1-(methoxymethyl)-5-methyl-2-thia-4-azabicyclo[4.1.0]hept-3-en-5-yl)-4,5-difluorophenyl)-5-(3-butyn-1-yloxy)-2-pyrazinecarboxamide], the IC50 on human recombinant BACE2 was 0.13 µM; in assay [1], 0.0076 µM; at human recombinant BACE1, 0.0074 µM; on Recombinant Cat D, greater than 400 µM.

Turning to `COC[C@H](C)Oc1cnc(C(=O)Nc2ccc(F)c([C@@]3(C)N=C(N)S[C@@]4(COC)C[C@H]43)c2)cn1` [Example 970, N-(3-((1S,5S,6S)-3-amino-1-(methoxymethyl)-5-methyl-2-thia-4-azabicyclo[4.1.0]hept-3-en-5-yl)-4-fluorophenyl)-5-((1S)-2-methoxy-1-methylethoxy)-2-pyrazinecarboxamide], the 50% inhibitory concentration (IC50) on human recombinant BACE2 is 0.333 µM; in assay [1] it was 0.021 µM; at human recombinant BACE1 it was 0.0085 µM; on Recombinant Cat D, greater than 400 µM.

Consider `C#CCOc1cnc(C(=O)Nc2cnc(F)c([C@@]3(C)N=C(N)S[C@@]4(CF)C[C@H]43)c2)c(C)n1` [Example 603, N-(5-((1S,5S,6S)-3-amino-1-(fluoromethyl)-5-methyl-2-thia-4-azabicyclo[4.1.0]hept-3-en-5-yl)-6-fluoro-3-pyridinyl)-3-methyl-5-(2-propyn-1-yloxy)-2-pyrazinecarboxamide], for which the IC50 is 0.0132 µM on human recombinant BACE2, 0.0037 µM in assay [1], 0.0016 µM at human recombinant BACE1 and 336 µM at Recombinant Cat D.

Turning to `C#CCOc1cnc(C(=O)Nc2cc(C)c(F)c([C@@]3(C)N=C(N)S[C@@]4(COC)C[C@H]43)c2)cn1` [Example 1043, N-(3-((1S,5S,6S)-3-amino-1-(methoxymethyl)-5-methyl-2-thia-4-azabicyclo[4.1.0]hept-3-en-5-yl)-4-fluoro-5-methylphenyl)-5-(2-propyn-1-yloxy)-2-pyrazinecarboxamide], the IC50 stood at 0.00931 µM at human recombinant BACE2, 0.0138 µM in assay [1], 0.000352 µM on human recombinant BACE1 and 196 µM at Recombinant Cat D.

On to `COC[C@]12C[C@H]1[C@@](C)(c1cc(NC(=O)c3ncc(O[C@H](C)c4ncco4)cc3C)cc(F)c1F)N=C(N)S2` [Example 688], for which the IC50 at human recombinant BACE2 was determined as 0.709 µM; in assay [1], 3.89 µM; on human recombinant BACE1 it was 0.548 µM; on Recombinant Cat D, 1320 µM.

As for `COC(=O)c1cc(NC(=O)c2ccc(Cl)cn2)cc([C@@]2(C)N=C(N)S[C@@]3(C(=O)OC)C[C@H]32)c1F` [Example 855, (1S,5S,6S)-methyl 3-amino-5-(5-(5-chloropicolinamido)-2-fluoro-3-(methoxycarbonyl)phenyl)-5-methyl-2-thia-4-azabicyclo[4.1.0]hept-3-ene-1-carboxylate], the IC50 was 0.0224 µM on human recombinant BACE2, 0.294 µM in assay [1], 0.198 µM at human recombinant BACE1 and greater than 400 µM at Recombinant Cat D.

Take `COC[C@]12C[C@H]1[C@@](C)(c1cc(NC(=O)c3cnc(OCc4ccccc4)cn3)cc(F)c1F)N=C(N)S2` [Example 1033, N-(3-((1S,5S,6S)-3-amino-1-(methoxymethyl)-5-methyl-2-thia-4-azabicyclo[4.1.0]hept-3-en-5-yl)-4,5-difluorophenyl)-5-(benzyloxy)-2-pyrazinecarboxamide]: the IC50 at human recombinant BACE2 is 0.0323 µM; in assay [1], 0.101 µM; on human recombinant BACE1, 0.00105 µM; at Recombinant Cat D it was 230 µM.

Take `N#Cc1cnc2c(Nc3ccc(F)c([C@@]4(CF)N=C(N)S[C@@]5(CF)C[C@H]54)c3)ncnc2c1` [Example 97, 4-((3-((1S,5S,6S)-3-amino-1,5-bis(fluoromethyl)-2-thia-4-azabicyclo[4.1.0]hept-3-en-5-yl)-4-fluorophenyl)amino)pyrido[3,2-d]pyrimidine-7-carbonitrile]: the IC50 amounted to 0.0632 µM on human recombinant BACE2 (BACE2 FRET enzyme assay), 0.0312 µM in assay [1] (BACE1 cell-based assay), 0.0118 µM on human recombinant BACE1 (BACE1 FRET enzyme assay) and 752 µM at Recombinant Cat D (Cathepsin D FRET enzyme assay).

In the case of `CN(C)C(=O)[C@]12C[C@H]1[C@@](C)(c1cc(NC(=O)c3cnc(OCC(F)(F)C(F)F)cn3)cc(F)c1F)N=C(N)S2` [Example 922, (1S,5S,6S)-3-amino-5-(2,3-difluoro-5-(((5-(2,2,3,3-tetrafluoropropoxy)-2-pyrazinyl)carbonyl)amino)phenyl)-N,N,5-trimethyl-2-thia-4-azabicyclo[4.1.0]hept-3-ene-1-carboxamide], the IC50 on human recombinant BACE2 was 0.00839 µM; in assay [1], 0.00155 µM; on human recombinant BACE1 it was 0.00155 µM; at Recombinant Cat D it was 1090 µM.

In the case of `C[C@]1(c2cc(NC(=O)c3cnc(OCC(F)(F)C(F)F)cn3)cnc2F)N=C(N)S[C@@]2(CF)C[C@H]21` [Example 610, N-(5-((1S,5S,6S)-3-amino-1-(fluoromethyl)-5-methyl-2-thia-4-azabicyclo[4.1.0]hept-3-en-5-yl)-6-fluoro-3-pyridinyl)-5-(2,2,3,3-tetrafluoropropoxy)-2-pyrazinecarboxamide], the IC50 was 0.193 µM at human recombinant BACE2, 0.00597 µM in assay [1], 0.00178 µM at human recombinant BACE1 and greater than 400 µM on Recombinant Cat D.

Regarding `C[C@]1(c2cc(Nc3ncnc4cc(OCc5ncco5)cnc34)ccc2F)N=C(N)S[C@]2(CO)[C@H]1C2(F)F` [Example 750, ((1S,5S,6R)-3-amino-7,7-difluoro-5-(2-fluoro-5-((7-(1,3-oxazol-2-ylmethoxy)pyrido[3,2-d]pyrimidin-4-yl)amino)phenyl)-5-methyl-2-thia-4-azabicyclo[4.1.0]hept-3-en-1-yl)methanol], the IC50 on human recombinant BACE2 was 0.0404 µM; in assay [1], 0.00301 µM; at human recombinant BACE1, 0.0019 µM; on Recombinant Cat D, 246 µM.

Take `[2H]C([2H])([2H])OC[C@]12C[C@H]1[C@@](C)(c1cc(Nc3nccc4nc(OC([2H])([2H])C#C)cnc34)cnc1F)N=C(N)S2` [Example 854, N-(5-((1S,5S,6S)-3-amino-5-methyl-1-(((~2~H_3_)methyloxy)methyl)-2-thia-4-azabicyclo[4.1.0]hept-3-en-5-yl)-6-fluoro-3-pyridinyl)-2-((1,1-~2~H_2_)-2-propyn-1-yloxy)pyrido[3,4-b]pyrazin-5-amine]: the IC50 on human recombinant BACE2 turned out to be 0.0383 µM; in assay [1], 0.00134 µM; at human recombinant BACE1, 0.00144 µM; at Recombinant Cat D, 1240 µM.

As for `C#CCOc1cnc(C(=O)Nc2ccc(F)c([C@@]3(C)N=C(N)S[C@@]4(C(=O)NC(C)(C)CF)C[C@H]43)c2)cn1` [Example 1006, (1S,5S,6S)-3-amino-N-(1-fluoro-2-methylpropan-2-yl)-5-(2-fluoro-5-(5-(prop-2-yn-1-yloxy)pyrazine-2-carboxamido)phenyl)-5-methyl-2-thia-4-azabicyclo[4.1.0]hept-3-ene-1-carboxamide], the IC50 on human recombinant BACE2 amounted to 0.0213 µM; in assay [1], 0.000575 µM; on human recombinant BACE1, 0.000885 µM; at Recombinant Cat D, 7.08 µM.

On to `COC[C@]12C[C@H]1[C@@](C)(c1cc(NC(=O)c3ncc(OCC(F)(F)F)cc3C)cc(F)c1F)N=C(N)S2` [Example 675, N-(3-((1S,5S,6S)-3-amino-1-(methoxymethyl)-5-methyl-2-thia-4-azabicyclo[4.1.0]hept-3-en-5-yl)-4,5-difluorophenyl)-3-methyl-5-(2,2,2-trifluoroethoxy)-2-pyridinecarboxamide], for which the IC50 stood at 0.703 µM at human recombinant BACE2, 0.0519 µM in assay [1], 0.0124 µM at human recombinant BACE1 and 1010 µM at Recombinant Cat D.

For `COC[C@]12C[C@H]1[C@@](C)(c1cc(NC(=O)c3cnc(OCc4nc(C)no4)cn3)ccc1F)N=C(N)S2` [Example 1008, N-(3-((1S,5S,6S)-3-amino-1-(methoxymethyl)-5-methyl-2-thia-4-azabicyclo[4.1.0]hept-3-en-5-yl)-4-fluorophenyl)-5-((3-methyl-1,2,4-oxadiazol-5-yl)methoxy)-2-pyrazinecarboxamide], the IC50 at human recombinant BACE2 is 0.195 µM; in assay [1], 0.0022 µM; on human recombinant BACE1, 0.00471 µM; on Recombinant Cat D, greater than 400 µM.

On to `C[C@]1(c2cc(NC(=O)c3ccc(OCC(F)(F)F)cn3)cc(F)c2F)N=C(N)S[C@@]2(C(=O)N3CCCC3)C[C@H]21` [Example 699, N-(3-((1S,5S,6S)-3-amino-5-methyl-1-(1-pyrrolidinylcarbonyl)-2-thia-4-azabicyclo[4.1.0]hept-3-en-5-yl)-4,5-difluorophenyl)-5-(2,2,2-trifluoroethoxy)-2-pyridinecarboxamide], for which the IC50 on human recombinant BACE2 stood at 0.0524 µM; in assay [1] it was 0.0352 µM; on human recombinant BACE1, 0.00106 µM; at Recombinant Cat D, 138 µM.

With `C[C@]1(c2cc(Nc3nccc4nc(OCc5cscn5)cnc34)cc(F)c2F)N=C(N)S[C@@]2(C(F)F)C[C@@H]12` [Example 875, N-(3-((1S,5S,6S)-3-amino-1-(difluoromethyl)-5-methyl-2-thia-4-azabicyclo[4.1.0]hept-3-en-5-yl)-4,5-difluorophenyl)-2-(1,3-thiazol-4-ylmethoxy)pyrido[3,4-b]pyrazin-5-amine], the IC50 at human recombinant BACE2 was found to be 0.0352 µM; in assay [1], 0.0272 µM; on human recombinant BACE1 it was 0.00296 µM; on Recombinant Cat D it was 295 µM.
